In patent publication US20240325369A1 (priority 2021, published 2024):

Protocol: Efficacy objectives were evaluated for subjects meeting the biomarker selection criteria described in the protocol. All subjects were monitored for safety during the study period, and up to 30 days after the last dose of study drug. Treatment continued until disease progression, unacceptable toxicity, death, or termination of the study by the sponsor.
Serum PSA, CTCs, survival status, SSEs were also collected. PROs included the BPI-SF, FACT-P, and EQ-5D-5L questionnaires. Safety assessments included recording of AEs, physical examinations, vital signs, ECGs, and ECOG performance status. Clinical laboratory testing included hematology, blood chemistry, and liver function parameters. Blood samples were also taken for pharmacokinetic assessments and biomarker analysis. Archival or recently collected tumor tissue samples were obtained from consenting subjects for biomarker identification.
All AEs reported on or after the date of first dose until 30 days (inclusive) after the last dose of study drug were considered treatment-emergent and were summarized. […] In addition. AE incidence rates were also summarized by severity and relationship to study drug. Treatment-related AEs were those judged by the investigator to beat least possibly related to the study drug. […] Deaths that occurred within 30 days after the last dose of study drug were defined as on-study deaths. No inferential statistical analyses were performed in analyzing the safety data.

[1] = safety population (289 subjects)
[2] = safety population (289 subjects), 300 mg once daily
[3] = safety population (289 subjects), data cutoff 26 Jan. 2021
[4] = safety population, 300 mg once daily

In the case of `NC(=O)c1cccc2cn(-c3ccc([C@@H]4CCCNC4)cc3)nc12` [Niraparib, 2-[4-[(3S)-piperidin-3-yl]phenyl]-2H-indazole-7-carboxamide], the “Treatment discontinuation because of adverse events (reason for discontinuation)” value (289 enrolled subjects, clinical data cutoff 26 Jan. 2021) is reported as 14%, the Safety profile (heavily pre-treated prostate cancer population) is reported as “manageable” and the “Deaths due to treatment-emergent AEs, % of subjects” value [1] is reported as 5.5%. For the same molecule, the “Deaths due to treatment-emergent AEs, number of subjects” value [1] was 16, the “Deaths within 30 days of the last dose due to progressive disease, % of subjects” value [1] was 6% and the “Deaths within 30 days of the last dose due to progressive disease, number of subjects” value [1] was 17. The “AEs leading to treatment discontinuation, % of subjects” value [2] was 22.8%, the “Adverse event of clinical interest (all grades): anemia” value [2] was 54.0% and the “Adverse event of clinical interest (all grades): febrile neutropenia” value [2] was 1.0%. The “Adverse event of clinical interest (all grades): neutropenia” value [2] was 19.4%, the “Adverse event of clinical interest (all grades): thrombocytopenia” value [2] was 34.3% and the “Grade 3 or 4 AE: anemia” value [2] was 32.9%. For the same molecule, the “Grade 3 or 4 AE: fatigue” value [2] was 6.6%, the “Grade 3 or 4 AE: nausea” value [2] was 5.2% and the “Grade 3 or 4 AE: neutropenia” value [2] was 9.7%. The “Grade 3 or 4 AE: thrombocytopenia” value [2] was 16.3%, the “Grade 3 or 4 AEs, % of subjects” value [2] was 75.1% and the “Grade 4 AE: thrombocytopenia, % of subjects” value [2] was 8.0%. The “Grade 4 AE: thrombocytopenia, number of subjects” value [2] was 23, the “Subjects reporting SAEs” value [2] was 46.4% and the “Subjects who experienced at least 1 AE” value [2] was 99.7%. The “Subjects who reported a related AE” value [2] was 90%, the “Deaths within 30 days of the last dose of study drug, % of subjects” value [3] was 9% and the “Deaths within 30 days of the last dose of study drug, number of subjects” value [3] was 26. For the same molecule, the “Grade 3 or 4 clinical chemistry value: hyperkalemia” value [4] was 2.5%, the “Grade 3 or 4 clinical chemistry value: hyponatremia” value [4] was 3.2% and the “Grade 3 or 4 clinical chemistry value: increased GGT” value [4] was 5.0%. The “Grade 3 or 4 clinical chemistry value: increased alkaline phosphatase” value [4] was 2.5%, the “Grade 3 or 4 hematology value: anemia” value [4] was 17.0% and the “Grade 3 or 4 hematology value: decreased lymphocyte count” value [4] was 18.4%.
